Species: Rattus norvegicus
Experiment: Open TG-GATES - Regimen: Single
Type: toxicity, organism-based, Sprague-Dawley
Parameters: regimen Single, gender Male, age 6 weeks
Conditions: in vivo, po, 50 mg/kg, route gavage, dose level Middle; for APTT / Bas / Eos / Fbg / Hb / Ht / Lym / MCH / MCHC / MCV / Mono / Neu / PT / Plat / RBC / Ret / WBC: tissue Blood; for KIDNEY_L / KIDNEY_R / KIDNEY_TOTAL: tissue Kidney; for LIVER: tissue Liver; for A/G / ALP / ALT / AST / BUN / CRE / Ca / Cl / DBIL / GLC / IP / K / LDH / Na / PL / RALB / TBIL / TC / TG / TP / gamma-GTP: tissue Plasma

Compound: CN(C)CCC=C1c2ccccc2CCc2ccccc21 [AMITRIPTYLINE]
- TERMINAL_BW (3 h): 194.1 g
- APTT (3 h): 16.5 s
- Bas (3 h): 0.4%
- Eos (3 h): 1%
- Fbg (3 h): 273 mg/dL
- Hb (3 h): 13.2 g/dL
- Ht (3 h): 41.1%
- Lym (3 h): 74%
- MCH (3 h): 21.1 pg
- MCHC (3 h): 32.2%
- MCV (3 h): 65.4 fL
- Mono (3 h): 3.4%
- Neu (3 h): 20.4%
- PT (3 h): 15.8 s
- Plat (3 h): 128.6 x10_4/uL
- RBC (3 h): 629.2 x10_4/ul
- Ret (3 h): 9.2%
- WBC (3 h): 102.1 x10_2/uL
- KIDNEY_L (3 h): 0.9 g
- KIDNEY_R (3 h): 0.9 g
- KIDNEY_TOTAL (3 h): 1.7 g
- LIVER (3 h): 8.7 g
- A/G (3 h): 0.8
- ALP (3 h): 1574.4 IU/L
- ALT (3 h): 62.8 IU/L
- AST (3 h): 79 IU/L
- BUN (3 h): 8 mg/dL
- CRE (3 h): 0.2 mg/dL
- Ca (3 h): 11 mg/dL
- Cl (3 h): 107.8 meq/L
- DBIL (3 h): 0.012 mg/dL
- GLC (3 h): 192.8 mg/dL
- IP (3 h): 9.3 mg/dL
- K (3 h): 4.2 meq/L
- LDH (3 h): 90.8 IU/L
- Na (3 h): 144.2 meq/L
- PL (3 h): 143.2 mg/dL
- RALB (3 h): 2.5 g/dL
- TBIL (3 h): 0.062 mg/dL
- TC (3 h): 78.8 mg/dL
- TG (3 h): 42.8 mg/dL
- TP (3 h): 5.5 g/dL
- gamma-GTP (3 h): 0.8 IU/L
- TERMINAL_BW (6 h): 191.7 g
- APTT (6 h): 15.9 s
- Bas (6 h): 0.4%
- Eos (6 h): 1%
- Fbg (6 h): 283 mg/dL
- Hb (6 h): 13.1 g/dL
- Ht (6 h): 40.7%
- Lym (6 h): 72.6%
- MCH (6 h): 20.9 pg
- MCHC (6 h): 32.4%
- MCV (6 h): 64.7 fL
- Mono (6 h): 3%
- Neu (6 h): 22.4%
- PT (6 h): 15.9 s
- Plat (6 h): 117.4 x10_4/uL
- RBC (6 h): 629.4 x10_4/ul
- Ret (6 h): 9.3%
- WBC (6 h): 84.5 x10_2/uL
- KIDNEY_L (6 h): 0.9 g
- KIDNEY_R (6 h): 0.9 g
- KIDNEY_TOTAL (6 h): 1.8 g
- LIVER (6 h): 7.9 g
- A/G (6 h): 0.9
- ALP (6 h): 1530.6 IU/L
- ALT (6 h): 47 IU/L
- AST (6 h): 76.4 IU/L
- BUN (6 h): 6.8 mg/dL
- CRE (6 h): 0.1 mg/dL
- Ca (6 h): 10.7 mg/dL
- Cl (6 h): 106.8 meq/L
- DBIL (6 h): 0.006 mg/dL
- GLC (6 h): 179.2 mg/dL
- IP (6 h): 9.9 mg/dL
- K (6 h): 4.1 meq/L
- LDH (6 h): 65.4 IU/L
- Na (6 h): 143.4 meq/L
- PL (6 h): 138.2 mg/dL
- RALB (6 h): 2.5 g/dL
- TBIL (6 h): 0.07 mg/dL
- TC (6 h): 81.2 mg/dL
- TG (6 h): 34.8 mg/dL
- TP (6 h): 5.5 g/dL
- gamma-GTP (6 h): 0.8 IU/L
- TERMINAL_BW (9 h): 188 g
- APTT (9 h): 16.3 s
- Bas (9 h): 0%
- Eos (9 h): 1%
- Fbg (9 h): 282.6 mg/dL
- Hb (9 h): 13.2 g/dL
- Ht (9 h): 40.4%
- Lym (9 h): 74%
- MCH (9 h): 21.1 pg
- MCHC (9 h): 32.7%
- MCV (9 h): 64.5 fL
- Mono (9 h): 2.2%
- Neu (9 h): 22%
- PT (9 h): 15.7 s
- Plat (9 h): 117.9 x10_4/uL
- RBC (9 h): 626.2 x10_4/ul
- Ret (9 h): 8.6%
- WBC (9 h): 86.3 x10_2/uL
- KIDNEY_L (9 h): 0.8 g
- KIDNEY_R (9 h): 0.8 g
- KIDNEY_TOTAL (9 h): 1.6 g
- LIVER (9 h): 7.4 g
- A/G (9 h): 0.9
- ALP (9 h): 1395.8 IU/L
- ALT (9 h): 42.4 IU/L
- AST (9 h): 73.8 IU/L
- BUN (9 h): 8 mg/dL
- CRE (9 h): 0.1 mg/dL
- Ca (9 h): 10.8 mg/dL
- Cl (9 h): 107.2 meq/L
- DBIL (9 h): 0.014 mg/dL
- GLC (9 h): 170.2 mg/dL
- IP (9 h): 9.9 mg/dL
- K (9 h): 4.2 meq/L
- LDH (9 h): 72.8 IU/L
- Na (9 h): 142.4 meq/L
- PL (9 h): 143.4 mg/dL
- RALB (9 h): 2.5 g/dL
- TBIL (9 h): 0.062 mg/dL
- TC (9 h): 79.2 mg/dL
- TG (9 h): 49.8 mg/dL
- TP (9 h): 5.4 g/dL
- gamma-GTP (9 h): 1 IU/L
- TERMINAL_BW (24 h): 205.9 g
- APTT (24 h): 16.7 s
- Bas (24 h): 0.2%
- Eos (24 h): 1%
- Fbg (24 h): 268 mg/dL
- Hb (24 h): 13.1 g/dL
- Ht (24 h): 39.8%
- Lym (24 h): 79.2%
- MCH (24 h): 21.1 pg
- MCHC (24 h): 32.8%
- MCV (24 h): 64.4 fL
- Mono (24 h): 2.6%
- Neu (24 h): 16.2%
- PT (24 h): 16.4 s
- Plat (24 h): 117.1 x10_4/uL
- RBC (24 h): 618.8 x10_4/ul
- Ret (24 h): 8.8%
- WBC (24 h): 101.4 x10_2/uL
- KIDNEY_L (24 h): 0.9 g
- KIDNEY_R (24 h): 0.9 g
- KIDNEY_TOTAL (24 h): 1.7 g
- LIVER (24 h): 9.2 g
- A/G (24 h): 0.8
- ALP (24 h): 1528.4 IU/L
- ALT (24 h): 49.8 IU/L
- AST (24 h): 72.6 IU/L
- BUN (24 h): 14.2 mg/dL
- CRE (24 h): 0.2 mg/dL
- Ca (24 h): 11 mg/dL
- Cl (24 h): 105.2 meq/L
- DBIL (24 h): 0.018 mg/dL
- GLC (24 h): 181.6 mg/dL
- IP (24 h): 7.1 mg/dL
- K (24 h): 4.3 meq/L
- LDH (24 h): 69.2 IU/L
- Na (24 h): 142.6 meq/L
- PL (24 h): 153 mg/dL
- RALB (24 h): 2.6 g/dL
- TBIL (24 h): 0.056 mg/dL
- TC (24 h): 82.6 mg/dL
- TG (24 h): 97.8 mg/dL
- TP (24 h): 5.6 g/dL
- gamma-GTP (24 h): 0.2 IU/L

Reference: ChEMBL document CHEMBL3885861, “Open TG-GATES”
